On the set-up of data set [1]: method as in Bothiraja et al., 2014. Particulars: ref Bothiraja et al., 2014; cited from earlier work.
A short description of data set [2]: Pharmacokinetic study after oral administration. In kind it is in vivo. Particulars: 10 mg/kg FST equivalent, C57BL6 mice, plasma. Here is the method:
The animal experiments were performed in accordance with the Committee for the Purpose of Control and Supervision of Experiments on Animals (CPCSEA) guidelines after approval from Institutional Animal Ethics Committee (IAEC) of the institution (Approval no. IICT/39/2016). Female C57BL6 mice weighing from 18 to 22 g were kept for overnight fasting before the start of the experiment and allowed free access of water ad libitum.
C57BL6 mice were divided into two groups containing 27 animals in each. Animals in group I received pure FST (as 1% gum acacia suspension) orally at a dose of 10 mg/kg body weight and the animals in group II received FHIC-PNP (FST equivalent to 10 mg/kg) orally. At predetermined time intervals, blood samples were collected from retro-orbital plexus into centrifuge tube containing EDTA. Samples were centrifuged at 4000 rpm for 15 min and supernatant (plasma) was collected and stored at −80 °C for further analysis by LC/MS.
Plasma samples were extracted by solvent mixture composed of chloroform and acetonitrile (1:1). The mixture was kept in shaker for 10 min and the supernatant layer was transferred into another Eppendorf tubes. Evaporation of organic solvent was done on ScanVac speed vacuum concentrator and 100 μl of acetonitrile was added and vortexed. A volume of 2 μl aliquots of sample solution were injected into LC–MS/MS for analysis. The linearity of the method was evaluated by analyzing spiked calibration samples using six calibration standards over a calibration range of 0.5–800 ng/ml in mice plasma.
Analysis was carried out on U-HPLC instrument (Agilent Technologies, Santa Clara, CA) equipped with a quaternary pump, a degasser, a diode array detector, an auto sampler and a column compartment. Mass spectrometric analysis was carried out on an Agilent 6420 triple quadrupole (Agilent Technologies, Santa Clara, CA) equipped with electrospray ionization (ESI) source. The data acquisition was under the control of Mass Hunter software.
FST and baicalein, an internal standard (IS), were separated on Agilent Eclipse plus C18 (2.1 mm × 50 mm, 1.8 μm) at constant temperature of 40 °C. The initial mobile phase consisted of 10 mM of ammonium formate (pH 3.5) and acetonitrile with gradient elution at a flow rate of 0.4 ml/min. Elution was in a gradient, the acetonitrile was kept constant at 2% in 0.5 min, and then increased to 98% in 1.5 min and maintained at 98% for another 2 min, then decreased to 2% in 3.8 min and maintained for 2.2 min. The total run time of the analysis was 5 min. After each injection, the sample manager was cleaned by a needle wash process with methanol–water (70/30 v/v). The typical operating source condition for MS scan in negative ion ESI mode were optimized as follow: collision energy 33 eV, cell accelerator voltage 7 eV, fragmentor 135, dwell time 200 ms, gas temperature 280 °C, gas flow 10 l/min and nebulizer 50 psi. The MRM modes of ions with m/z 284.8 → 134.8 for FST and m/z 268.8 → 166.8 for IS (baicalein) were utilized for quantitative analysis.

The nature of data set [3]: Encapsulation efficiency (indirect method). It counts as physicochemical. Conditions: FST encapsulated in PLGA nanoparticles. The procedure:
The amount of drug loaded in the nanoparticles was determined by indirect method. Nanoparticle dispersion was centrifuged using Centrisart tubes (Sartorius, Bohemia, NY) and supernatant was analyzed for FST content using UV-visible spectrophotometry at 360 nm. The EE was calculated as follows: EE (%) = {(DT – DS)/DT} × 100, where DT=total FST added; DS=FST in the supernatant.

The test system of another data set is MCF-7 cells. Nature of the data set: Quantitative apoptosis by flow cytometer (Annexin V-FITC/PI). Conditions: MCF-7, equivalent to 20 μg/ml FST, 24 h. In kind it is cell-based, human. The procedure:
For the quantitative analysis of apoptosis, cells were treated with FST, FHIC or FHIC-PNP (equivalent to 20 μg/ml FST) for 24 h. Cells were trypsinized, centrifuged at 1200 rpm for 5 min, washed three times with ice-cold PBS and were re-suspended in 500 μl of binding buffer. Thereafter, 5 μl of Annexin V-FITC and 10 μl of PI were added and mixed for 15 min in the dark. The stained cells were analyzed using a flow cytometer (FACS Calibur, BD, San Jose, CA). Data analysis was performed using Cell-Quest software (Becton Dickinson, Franklin Lakes, NJ).

Data set [4] has as its system MCF-7 human breast adenocarcinoma cells. Nature of the data set: Cell viability assay (MTT assay). It counts as cell-based. Conditions: MCF7, MCF-7, 24 h of treatment. Here is the method: The cell viability assay (MTT assay) was performed in MCF-7 human breast adenocarcinoma cells. Cells were seeded at a density of 7 × 10^3 in DMEM medium supplemented with 10% FBS in a 96-well plate and incubated for 24 h at 37 °C in a humidified 5% CO2. The cells were exposed to different concentrations of FST, FHIC and FHIC-PNP for 24 h in order to ascertain the concentration at which 50% of the cells are viable. A volume of 10 μl of MTT solution (5 mg/ml in PBS) was added to each well. The plate was incubated for 4 h and thereafter the contents in the wells were replaced with 100 μl DMSO and again incubated for 10 min. The optical density was measured using a microplate reader (BioTek Instruments, Synergy 4, Winooski, VT) at 570 nm. The cytotoxicity of blank PNP was also studied to determine the toxicity of the nanocarrier system.
(In general: Formazan colour is commonly taken as a measure of viable cells.)

Data set [5] in a line: Apparent solubility of FST and FHIC in aqueous phase. It counts as physicochemical. Conditions: PBS. Here is the method:
For the determination of apparent solubility, native FST and FHIC were added into 10 ml of PBS and stirred in an orbital shaker for 24 h (Madan et al., [2012]). The solutions were centrifuged (10 000 rpm for 15 min), supernatant was collected and filtered through 0.22 μm filter. After appropriate dilution, FST absorbance was measured using UV-visible spectroscopy at 360 nm. The calibration curve was prepared in the range of 1–20 μg/ml. The observed regression equation was Y = 0.054X + 0.058 with r^2=0.997.

Data set [6] in a line: In vitro drug release (dialysis bag method). In kind it is physicochemical. Particulars: 8 h, PBS pH 7.4 with 0.1% v/v Tween 80, 37 °C. The procedure: Dialysis bag method was used to carry out the in vitro drug release studies. FST or FHIC-PNP dispersion equivalent to 1 mg of FST, was introduced into the dialysis bag (12 000–14 000 molecular weight cut off, Sigma Aldrich, St. Louis, MO) and placed in 100 ml of phosphate buffer saline pH 7.4 (PBS) containing 0.1%v/v Tween 80 as the release media and kept for stirring at 37 °C at 100 rpm. Samples were withdrawn at different time intervals and replaced with equal volume of media to maintain the sink condition. The collected samples were analyzed for amount of FST content by UV-visible spectrophotometry at 360 nm.

On the set-up of data set [7]: method as in Seguin et al., 2013. Particulars: ref Seguin et al., 2013; cited from earlier work.

Converted amounts (≈) assume the structure as drawn.

The aqueous solubility is the concentration that dissolves in the medium under given conditions. Usually AUC(0-inf) stands for the area under the concentration-time curve extrapolated to infinity. The AUC(0-t) is exposure summed from dosing to a finite time, without extrapolation to infinity. A word on the Cmax: it is the peak of the concentration-time curve. Broadly, the MRT is a mean duration of stay, worked out from the concentration-time curve. What is called Tmax is the time from dosing to the highest level. What is called half-life is the time in which the quantity being followed falls by half. What is called IC50 is the concentration needed to halve the response being measured. What is called solubility is the dissolved amount per volume that the medium holds. For the compound `O=c1c(O)c(-c2ccc(O)c(O)c2)oc2cc(O)ccc12` [FST, 2-(3,4-dihydroxyphenyl)-3,7-dihydroxychromen-4-one], the aqueous solubility in data set [1] was 10.45 µg/mL (≈ 36.5 µM). In addition, the Cl in data set [2] was determined as 2022.59 ± 0.02 mL/h. Also, in data set [2] (female, mouse), the AUC(0-inf) stood at 100 ± 2.91 ng·h/mL, the AUC(0-t) amounted to 80.4 ± 3.61 ng·h/mL, the Cmax came out at 69.3 ± 4.16 ng/mL and the mean residence time MRT stood at 3.82 ± 2.15 h. In data set [2] (female, mouse), the Tmax came to 0.25 ± 1.2 h and the half-life was 3.26 ± 0.9 h. Moreover, the “encapsulation/entrapment efficiency (EE)” value in data set [3] (listed as native FST) stood at 47%. Moreover, the “encapsulation/entrapment efficiency (EE)” value in data set [3] (listed as pure FST) stood at 47.3%. The apoptosis induction in the data set on MCF-7 cells was determined as 21.8%. In addition, the IC50 in data set [4] is 77.8 ± 2.12 µg/mL. Besides, the solubility at 24 h in data set [5] was 5.25 µg/mL (≈ 18.3 µM). Further, the “FST released in vitro” value in data set [6] is reported as “about 93%”. Further, in data set [7], the oral bioavailability is on record as 44.1%.

Values taken from PMC8241160, “Enhanced oral bioavailability and anticancer efficacy of fisetin by encapsulating as inclusion complex with HPβCD in polymeric nanoparticles” (Drug Delivery, 2017).
